Measured values as given in patent US20190262409A1, “NOVEL LACTOBACILLUS SAKEI AND COMPOSITION COMPRISING THE SAME” (CJ Cheiljedang Corporation, priority 2016, published 2019).

How the values were obtained:
Format in all cases: in vivo
[1] = test system: obesity induced mice with high fat diet; assay: Histological evaluation of liver tissue (H & E) in high fat diet mice; settings: H & E stained liver sections; CJLS03 high concentration group (FIG. 12)
Source text: (§1) From the time of arrival, all animals underwent a 6-week induction period, including a one-week acclimation period. The mice were divided into normal diet (negative control) and high fat diet (positive control and experiment group) and each fed, while given feed and water ad libitum for 6 weeks from the day of division (day 0). The CJLS03 according to the present disclosure was grouped according to concentrations (low: 10^8 CFU, medium: 10^9 CFU, high: 10^10 CFU). To measure accurate efficacy, a commercially available FDA-approved anti-obesity drug Orlistat (Product name: Zenical), and a health function food Garcinia cambogia were added as experiment groups in addition to the normal diet control group and high fat diet group, and compared with the anti-obesity function of the lactic acid bacterial.
(§2) For administration, the lactic acid bacteria were homogeneously suspended in PBS and administered in a 10 mL/kg of administration volume twice daily at determined times (10:00 A.M. to 11:00 A.M., 5:00 P.M. to 6:00 P.M.) for 7 weeks, while the control groups were orally administered with the same amount of solvent vehicle (PBS) twice daily for 7 weeks. Experimental substances were newly prepared and administered into the A.M. and P.M.-administered strain. […]
Liver tissues of the ND, HFD, OLS, GC, and high CJLS03 concentration groups were histologically evaluated. […]

[2] = test system: obesity induced mice with high fat diet; assay: Measurement of size of adipocytes in high fat diet mice; settings: compared to HFD and GC groups; CJLS03 high concentration group (FIG. 13)
Source text: (§3) From the time of arrival, all animals underwent a 6-week induction period, including a one-week acclimation period. The mice were divided into normal diet (negative control) and high fat diet (positive control and experiment group) and each fed, while given feed and water ad libitum for 6 weeks from the day of division (day 0). The CJLS03 according to the present disclosure was grouped according to concentrations (low: 10^8 CFU, medium: 10^9 CFU, high: 10^10 CFU). […]
as §2, with “weeks.” for “weeks. Experimental substances were newly prepared and administered into the A.M. and P.M.-administered strain.”
Measuring the size of adipocytes is well known as an effective method capable of proving the anti-obesity efficacy. […] The adipocyte photos were analyzed using the Scion image program (derived from NIH Image) by calculating an average value of two adipocyte sizes. […]

[3] = test system: obesity induced mice with high fat diet; assay: Measurement of organ fat weight in high fat diet mice; settings: compared with HFD group (FIGS. 10 and 11)
Source text: as §3
as §2, with “weeks.” for “weeks. Experimental substances were newly prepared and administered into the A.M. and P.M.-administered strain.”
After blood was collected, the visceral examination was carried out to confirm the presence of abnormalities in the internal organs, and the adipose tissues (epididymal fat, subcutaneous fat, mesenteric fat) were extracted. […] The weight of each adipose tissue was measured with an electronic balance. Additionally, the relative tissue weight per 100 g of body weight was calculated based on the body weight fasted before autopsy (calculation formula: relative organ weight (%)=organ weight (g)/fasting body weight before autopsy (g)×100). […]

[4] = test system: obesity induced mice with high fat diet; assay: Autopsy and blood biochemistry examination in high fat diet mice; settings: serum, day 49, 16 h fasted, compared to HFD or GC group (FIG. 9)
Source text: as §1
For administration, the lactic acid bacteria were homogeneously suspended in PBS and administered in a 10 mL/kg of administration volume twice daily at determined times (10:00 A.M. to 11:00 A.M., 5:00 P.M. to 6:00 P.M.) for 7 weeks, while the control groups were orally administered with the same amount of solvent vehicle (PBS) twice daily for 7 weeks. Experimental substances were newly prepared and administered into the A.M. and P.M.-administered strain. All strains were stored under refrigeration so as to retain the active condition thereof, and the PBS which was refrigerated was used for washing strain samples and preparing solutions. The experimental animal of each group was fasted for 16 hours and sacrificed on the termination day of experiment (day 49) to be used for blood biochemistry tests and histological evaluation analysis.
On the day of termination of the experiment according to Example 4-1 (day 49), the experimental animals were sacrificed after stopping their diets for 16 hours and autopsied. All of the experimental animals were subjected to collection of about 500 μL to 700 μL of blood using a heparin-free capillary tube of plexus venosus under an ether inhalation anesthesia. The collected blood was put in an SST tube and coagulated for 30 minutes to 1 hour at room temperature. The blood was then centrifuged at 4° C. and 4000 rpm for 10 minutes to separate the serum followed by storing at −80° C. until the analysis. The amounts of glucose (GLU), triglyceride (TG), total cholesterol (TC), low-density lipoprotein cholesterol (LDL), high-density lipoprotein cholesterol (HDL), glutamate oxaloacetate transaminase (GOT; AST), glutamate pyruvate transaminase (GPT; ALT), CREA (creatinine), and lactate dehydrogenase (LDH) in the separated serum were measured using a blood biochemistry (Accute TBA-40FR, Toshiba Medical System Co., Japan).

`CCCCCCCCCCC[C@@H](C[C@@H]1OC(=O)[C@H]1CCCCCC)OC(=O)[C@H](CC(C)C)NC=O` [OLS, Orlistat] was tested, and the “lipid particles in liver tissue” value [1] was “rarely found”, the “sizes of the adipocytes” value [2] was “significantly reduced” and the fasting weight ([3]; body weight after 16 h fasting before autopsy) was “lower than those of the HFD group”. For the same molecule, the adipose tissue weights ([3]; epididymal, subcutaneous, mesenteric fat) was “lower than those of the HFD group”, the “concentration of blood HDL” value [4] was “significantly reduce” and the “concentration of blood LDL” value [4] was “significantly reduce”. The “concentration of blood TC (total cholesterol)” value [4] was “significantly reduce” and the “concentration of blood glucose” value [4] was “significantly reduce”.
